Among the data in ChEMBL document CHEMBL1146985, “Investigation of the mechanism of action of 3-(4-bromophenyl)-5-acyloxymethyl-2,5-dihydrofuran-2-one against Candida albicans by flow cytometry” (Bioorg Med Chem Lett, 2006) are Activity values, retold here.

Assay [1] has as its system Candida albicans. Nature of the assay: Antifungal activity against Candida albicans ATCC 90028 at 10 ug/ml. It is filed as functional, organism-based.
Assay [2] has as its system Candida albicans. Nature of the assay: Antifungal activity against Candida albicans ATCC 90028 at 100 ug/ml. It counts as functional, organism-based.

Activity calls are given as the source filed them. The calls are words filed in the database; no cut-off is given here.

As for `CC(=O)OCC1C=C(c2ccc(Br)cc2)C(=O)O1` (configuration not stated), in assay [1], the outcome was Active.

With `O=C1OC(CO)C=C1c1ccc(Br)cc1` (configuration not stated), the result in assay [2] was Active.
